Test system: b.End3 cells
Experiment: Peptide-mediated protein (avidin-FITC/albumin-FITC) delivery to b.End3 cells
Type: cell-based, mouse
Details: N-terminal biotin peptide, increasing concentrations, 1 h, 4 °C, avidin-FITC 50 µg/mL, 30 min, fluorescence, 3 independent experiments, triplicate
Description: Confluent endothelial monolayers were treated with increasing peptide concentrations in HBSS (1 h at 4 °C, unless otherwise stated). After removing unbound peptide, cells were either incubated in appropriate cell culture medium (37 °C) for varying time-points, or directly treated with neutravidin-FITC or albumin-FITC (0.83 mM, in HBSS, 30 min at 4 °C). After removing unbound protein with thorough HBSS washes, fluorescence (490/525 em/ex) was quantified with a Spark multimode microplate reader (Tecan) or imaged through confocal microscopy (Additional file 1: Diagram S1a–c).

Substance: HAIYPRH [Tf peptide]
- Avidin delivery to b.End3 cells: lower avidin delivery than CFAG

— article PMC10699038, “Identifying molecular tags selectively retained on the surface of brain endothelial cells to generate artificial targets for therapy delivery” (Fluids and Barriers of the CNS, 2023)
